Results on 14 molecules are retold here after patent publication US12012404B2, “Pyrimidoheterocyclic compounds and application thereof” (D3 BIO (WUXI) CO., LTD., priority 2020, dated 2024).

Experiment [1] concerns KRAS^G12C-mutated MIA-PA-CA-2 cells. Put plainly: Inhibition of proliferation of KRAS^G12C-mutated MIA-PA-CA-2 cells (CellTiter-Glo, 72 h). Format: cell-based, human. The procedure: Compounds were assayed for IC50 of inhibition of proliferation of KRAS^G12C-mutated MIA-PA-CA-2 cells.
The main reagent used in this assay included CellTiter-Glo (Promega, Cat. No. G7573).
The main instrument used in this assay was PerkinElmer EnVision multi-function microplate reader.
1.4 Method of the Assay • 1) Adherent cells were digested with trypsin to form a cell suspension, and the cell suspension was counted for later use. • 2) An appropriate amount of cells was added into a centrifuge tube, and a cell culture medium was added to make up the required volume; then the cells were plated to a 96-well plate at a final density of 2000 cells/well, 100 μL of culture medium. • 3) After incubating for 24 hr, the compound was formulated to 10 mM with DMSO, and serially diluted 3-fold with DPBS (Dulbecco's Phosphate Buffered Saline) to 9 points; 10 μL was added to each well in duplicate. 10 μL of DPBS per well was added to the assay control wells (Con). • 4) On the same day, 50 μL of CellTiter Glo was added to another cell culture plate without compounds, and the fluorescence value was read by EnVision. […] The fluorescence value was read by EnVision. • 6) Data analysis: The inhibition rate of cells in each well was calculated according to the following equation: […]
(In ATP-based viability assays light output follows the ATP content of the culture.)

For experiment [2], the system named is KRAS^G12C-mutated H358 cells. Put plainly: H358 cell assay: inhibition of proliferation (CellTiter-Glo, 5 days). Format: cell-based. The note with it: NCI-H358 cells, 5 days incubation. The procedure: Compounds were assayed for IC50 of inhibition of proliferation of KRAS^G12C-mutated H358 cells.
The main instrument used in this assay was a Nivo multi-label analyzer (PerkinElmer).
2.4 Method of the Assay: • 1) NCI-H358 cells were inoculated in a white 96-well plate, and each well contained 80 μL of cell suspension and 4000 NCI-H358 cells. […] The assay was carried out in duplicate. 78 μL of medium was added to the intermediate plate, and then 2 μL of the serially diluted compound was transferred to each well of the intermediate plate according to the corresponding position. After mixing well, 20 μL per well was transferred to the cell plate. […] The cell plate was incubated in a carbon dioxide incubator for 5 days. Another cell plate was prepared, and the signal value of the cell plate was read on the day of compound addition as the maximum value (Max value in the equation below) to participate in data analysis. 25 μL of cell viability chemiluminescence detection reagent was added to each well of the cell plate, and the plate was incubated at room temperature for 10 minutes to stabilize the luminescence signal. A multi-label analyzer was used for reading the plate. • 3) […]

Counter-ions that a name gives are not always drawn.

A word on the IC50: it is the concentration at which inhibition is half-maximal. For `C=C(F)C(=O)N1CCN(c2nc(OCC3CCCN3C)nc3c2COC(c2c(F)c(N)cc(C)c2C(F)(F)F)C3)CC1CC#N` (single isomer, unassigned) [8B hydrochloride], the IC50 was 2.7 nM in experiment [1] (72 h incubation) and under 4.6 nM in experiment [2].

In the case of `C=CC(=O)N1C[C@H](C)N(c2nc(OC[C@@H]3CCCN3C)nc3c2COC(c2c(F)c(N)cc(C)c2C(F)(F)F)C3)C[C@H]1C` (some centres unmarked) [Compound 11], in experiment [2], it took 6.7 nM to reach half-maximal inhibition (IC50).

For `C=CC(=O)N1CCN(c2nc(OC[C@@H]3CCCN3C)nc3c2COC(c2c(F)c(N)cc(C)c2C(F)(F)F)C3)C[C@@H]1C` (some centres unmarked) [Compound 10], in experiment [2] (Homo sapiens, 120 h), the IC50 came out at 70 nM.

Regarding `C=CC(=O)N1CCN(c2nc(OCC3CC(F)CN3C)nc3c2COC(c2c(F)c(N)cc(C)c2C(F)(F)F)C3)C(C)C1` (single isomer, unassigned) [Compound 9B], the concentration for half-maximal inhibition (IC50) in experiment [1] (72 h incubation) was 6.98 nM; in experiment [2], 5.5 nM.

`C=C(F)C(=O)N1CCN(c2nc(OCC34CCCN3CCC4)nc3c2COC(c2c(F)c(N)cc(C)c2C(F)(F)F)C3)C[C@@H]1CC#N` (some centres unmarked) [Compound 16]: the IC50 in experiment [1] (Homo sapiens, MIA PaCa-2, 72 h incubation) is 2.22 nM; in experiment [2] (Homo sapiens, 120 h), 1.7 nM.

Regarding `C=CC(=O)N1CCN(c2nc(OCC3CCCN3C)nc3c2CNC(c2c(Cl)c(C)cc4[nH]ncc24)C3)CC1CC#N` (single isomer, unassigned) [4B hydrochloride], the IC50 in experiment [2] amounted to 27 nM.

The molecule `C=CC(=O)N1CCN(c2nc(OC[C@@H]3CCCN3C)nc3c2COC(c2c(F)c(N)cc(C)c2C(F)(F)F)C3)[C@H](C)C1` (some centres unmarked) [Compound 13] gave an IC50 in experiment [2] (Homo sapiens, 120 h) of 32.6 nM.

As for `C=CC(=O)N1CCN(c2nc(OCC34CCCN3CCC4)nc3c2COC(c2c(F)c(N)cc(C)c2C(F)(F)F)C3)C(C)C1` (centres unmarked) [Compound 12], the values for the IC50 in experiment [1] (72 h incubation) and in experiment [2] were 1.3 nM and 2.5 nM, respectively.

With `C=CC(=O)N1CCN(c2nc(OCC3CCCN3C)nc3c2COC(c2c(F)c(N)cc(C)c2C(F)(F)F)C3)C(C)C1` (single isomer, unassigned) [Compound 18B], the half-inhibitory concentration (IC50) in experiment [1] (72 h incubation) came out at 3.29 nM; in experiment [2] it was 4.7 nM.

`C=CC(=O)N1CCN(c2nc(OC[C@@H]3CCCN3C)nc3c2COC(c2cccc4cccc(Cl)c24)C3)C[C@@H]1CC#N` (some centres unmarked) [Compound 2] had an IC50 in experiment [2] of 19 nM.

Turning to `C=CC(=O)N1CCN(c2nc(OCC3CCCN3C)nc3c2COC(c2c(Cl)c(C)cc4[nH]ncc24)C3)CC1CC#N` (single isomer, unassigned) [Compound 5B], the IC50 in experiment [2] worked out at 12.9 nM.

In experiment [2], `C=CC(=O)N1CCN(c2nc(OCC3CCCN3C)nc3c2CN(C)C(c2c(Cl)c(C)cc4[nH]ncc24)C3)CC1CC#N` (single isomer, unassigned) [Compound 6A] displayed an IC50 of under 4.6 nM.

Molecule `C=CC(=O)N1CCN(c2nc(OC[C@@H]3CCCN3C)nc3c2COC(c2c(F)c(N)cc(C)c2C(F)(F)F)C3)C[C@H]1C` (some centres unmarked) [Compound 15] displayed an IC50 in experiment [2] (Homo sapiens, 120 h) of 9.2 nM.

Regarding `C=CC(=O)N1CCN(c2nc(OC[C@@H]3CCCN3C)nc3c2CN(C)C(c2cccc4ccccc24)C3)C[C@@H]1CC#N` (some centres unmarked) [Compound 1], the IC50 amounted to 5.21 nM in experiment [1] (72 h incubation) and 68.2 nM in experiment [2].
